{"source": "PubChem BioAssay AID296", "about": "(DTP/NCI, 2004)", "tested_on": "MX-1 breast xenograft, nude mice, tumor weight T/C", "assay": "NCI In Vivo Anticancer Drug Screen. Data for tumor model Human Mammary Carcinoma MX-1 Xenograft (intrarenal inoculation) in NU/NU Swiss (nude) mice", "settings": "endpoint: mean tumor weight change, higher = larger tumour", "summary_of_the_method": "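Mice carrying the implanted tumor receive either test agent or vehicle. Tumor size or survival is then recorded for both groups. Results are stated as the treated-to-control quotient.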", "key": {"[1]": {"settings": "dose: 100.0 mg/kg/injection, schedule: Q01DX010 (sc), vehicle: saline"}, "[2]": {"settings": "dose: 200.0 mg/kg/injection, schedule: Q01DX010 (sc), vehicle: saline"}}, "note": "Records with an inconclusive call do not appear.", "data": [{"smiles": "N=c1ccn2c(n1)OC1C(O)C(CO)OC12", "note": "(centres undefined)", "values": [{"measurement": "T/C", "setting": "dose: 150.0 mg/kg/injection, schedule: Q04DX003 (sc), vehicle: saline", "value": "102 % of control"}, {"measurement": "T/C", "setting": "dose: 300.0 mg/kg/injection, schedule: Q04DX003 (sc), vehicle: saline", "value": "84 % of control"}, {"measurement": "T/C", "setting": "dose: 400.0 mg/kg/injection, schedule: Q04DX003 (sc), vehicle: saline", "value": "95 % of control"}, {"measurement": "T/C", "setting": "dose: 600.0 mg/kg/injection, schedule: Q04DX003 (sc), vehicle: saline", "value": "42 % of control"}, {"measurement": "T/C", "setting": "dose: 600.0 mg/kg/injection, schedule: Q04DX003 (sc), vehicle: suspension in saline", "value": "70 % of control"}, {"measurement": "T/C", "setting": "dose: 800.0 mg/kg/injection, schedule: Q04DX003 (sc), vehicle: saline", "value": "69 % of control"}, {"measurement": "T/C", "setting": "dose: 1200.0 mg/kg/injection, schedule: Q04DX003 (sc), vehicle: saline", "value": "50 % of control"}, {"measurement": "T/C", "setting": "dose: 1200.0 mg/kg/injection, schedule: Q04DX003 (sc), vehicle: suspension in saline", "value": "55 % of control"}, {"measurement": "T/C", "setting": "dose: 1600.0 mg/kg/injection, schedule: Q04DX003 (sc), vehicle: saline", "value": "64 % of control"}, {"measurement": "T/C", "setting": "dose: 2400.0 mg/kg/injection, schedule: Q04DX003 (sc), vehicle: suspension in saline", "value": "70 % of control"}]}, {"smiles": "Nc1ncnc2c1ncn2C1OC(COP(=O)(O)O)C(O)C1O", "note": "(centres undefined)", "values": [{"measurement": "T/C", "setting": "dose: 100.0 mg/kg/injection, schedule: Q01DX010 (ip), vehicle: saline", "value": "85 % of control"}, {"measurement": "T/C", "setting": "dose: 200.0 mg/kg/injection, schedule: Q01DX010 (ip), vehicle: saline", "value": "90 % of control"}, {"measurement": "T/C", "setting": "dose: 333.33 mg/kg/injection, schedule: Q04DX003 (sc), vehicle: saline", "value": "124 % of control"}, {"measurement": "T/C", "setting": "dose: 400.0 mg/kg/injection, schedule: Q01DX010 (ip), vehicle: saline", "value": "51 % of control"}, {"measurement": "T/C", "setting": "dose: 666.65 mg/kg/injection, schedule: Q04DX003 (ip), vehicle: saline", "value": "106 % of control"}, {"measurement": "T/C", "setting": "dose: 666.65 mg/kg/injection, schedule: Q04DX003 (sc), vehicle: saline", "value": "115 % of control"}, {"measurement": "T/C", "setting": "dose: 800.0 mg/kg/injection, schedule: Q01DX010 (ip), vehicle: saline", "value": "6 % of control"}, {"measurement": "T/C", "setting": "dose: 1333.3 mg/kg/injection, schedule: Q04DX003 (ip), vehicle: saline", "value": "49 % of control"}, {"measurement": "T/C", "setting": "dose: 1333.3 mg/kg/injection, schedule: Q04DX003 (sc), vehicle: saline", "value": "62 % of control"}, {"measurement": "T/C", "setting": "dose: 1600.0 mg/kg/injection, schedule: Q01DX010 (sc), vehicle: saline", "value": "-36 % of control"}, {"measurement": "T/C", "setting": "dose: 2666.6 mg/kg/injection, schedule: Q04DX003 (ip), vehicle: saline", "value": "29 % of control"}, {"measurement": "T/C", "setting": "dose: 2666.6 mg/kg/injection, schedule: Q04DX003 (sc), vehicle: saline", "value": "76 % of control"}]}, {"smiles": "NCCc1ccc(O)c(O)c1", "values": [{"measurement": "T/C", "setting": "[1]", "value": "77 % of control"}, {"measurement": "T/C", "setting": "[2]", "value": "62 % of control"}, {"measurement": "T/C", "setting": "dose: 400.0 mg/kg/injection, schedule: Q01DX010 (sc), vehicle: saline", "value": "80 % of control"}, {"measurement": "T/C", "setting": "dose: 800.0 mg/kg/injection, schedule: Q01DX010 (sc), vehicle: saline", "value": "61 % of control"}]}, {"smiles": "Cn1cc(C2NC(=O)c3ccccc3N2)c2ccccc21", "note": "(centres undefined)", "values": [{"measurement": "T/C", "setting": "dose: 150.0 mg/kg/injection, schedule: Q04DX003 (sc), vehicle: Klucel (hydroxypropylcellulose) (HPC)", "value": "113 % of control"}, {"measurement": "T/C", "setting": "dose: 1200.0 mg/kg/injection, schedule: Q04DX003 (sc), vehicle: Klucel (hydroxypropylcellulose) (HPC)", "value": "108 % of control"}]}, {"smiles": "CCC(C)Nc1ccc(N)cc1", "note": "(centres undefined)", "values": [{"measurement": "T/C", "setting": "dose: 4.5 mg/kg/injection, schedule: Q04DX003 (sc), vehicle: Klucel (hydroxypropylcellulose) (HPC)", "value": "50 % of control"}, {"measurement": "T/C", "setting": "dose: 18.0 mg/kg/injection, schedule: Q04DX003 (sc), vehicle: Klucel (hydroxypropylcellulose) (HPC)", "value": "76 % of control"}]}, {"smiles": "C1CN2CN3CCN(CN1C3)C2", "values": [{"measurement": "T/C", "setting": "[1]", "value": "114 % of control"}, {"measurement": "T/C", "setting": "[2]", "value": "97 % of control"}]}, {"smiles": "CC1Oc2cc3c(-c4c(O)cc(O)c5c(O)c6c(cc45)OC(C)C(C)C6=O)c(O)cc(O)c3c(O)c2C(=O)C1C", "note": "(centres undefined)", "values": [{"measurement": "T/C", "setting": "dose: 9.38 mg/kg/injection, schedule: Q04DX003 (ip), vehicle: suspension in saline", "value": "16 % of control"}]}, {"smiles": "C[n+]1c(-c2cccc(OCCOCCOc3cccc(-c4c5cc(N)ccc5c5ccc(N)cc5[n+]4C)c3)c2)c2cc(N)ccc2c2ccc(N)cc21", "values": [{"measurement": "T/C", "setting": "dose: 4.0 mg/kg/injection, schedule: Q04DX003 (sc), vehicle: water", "value": "92 % of control"}, {"measurement": "T/C", "setting": "dose: 64.0 mg/kg/injection, schedule: Q04DX003 (sc), vehicle: water", "value": "73 % of control"}]}, {"smiles": "CC/C(=C(/CC)c1ccc(O)cc1)c1ccc(O)cc1", "values": [{"measurement": "T/C", "setting": "dose: 75.0 mg/kg/injection, schedule: Q04DX003 (sc), vehicle: saline with Tween-80", "value": "66 % of control"}, {"measurement": "T/C", "setting": "dose: 150.0 mg/kg/injection, schedule: Q04DX003 (sc), vehicle: saline with Tween-80", "value": "47 % of control"}, {"measurement": "T/C", "setting": "dose: 300.0 mg/kg/injection, schedule: Q04DX003 (sc), vehicle: saline with Tween-80", "value": "48 % of control"}, {"measurement": "T/C", "setting": "dose: 600.0 mg/kg/injection, schedule: Q04DX003 (sc), vehicle: saline with Tween-80", "value": "55 % of control"}]}]}
